According to patent US20160010155A1, “KCNK3 Channel Loss-of-Function Mutants in Familial and Idiopathic Pulmonary Arterial Hypertension” (THE TRUSTEES OF COLUMBIA UNIVERSITY IN THE CITY OF NEW YORK, priority 2013, published 2016):

Tests used:
TASK-1 = TASK-1 (Homo sapiens, UniProt O14649); settings: cited from earlier work
[1] = cited from earlier work
WT hKCNK3 channel = target: T1, WT hKCNK3 channel (Homo sapiens, UniProt O14649); assay: Whole-cell patch clamp of WT hKCNK3 channels expressed in COS-7 cells, drug application; assay type: cell-based; settings: 10 μM, current at +60 mV, pH 7.4
T1 construct: expressed in transfected cells; host or cells: COS-7
T1 sequence (O14649 whole entry): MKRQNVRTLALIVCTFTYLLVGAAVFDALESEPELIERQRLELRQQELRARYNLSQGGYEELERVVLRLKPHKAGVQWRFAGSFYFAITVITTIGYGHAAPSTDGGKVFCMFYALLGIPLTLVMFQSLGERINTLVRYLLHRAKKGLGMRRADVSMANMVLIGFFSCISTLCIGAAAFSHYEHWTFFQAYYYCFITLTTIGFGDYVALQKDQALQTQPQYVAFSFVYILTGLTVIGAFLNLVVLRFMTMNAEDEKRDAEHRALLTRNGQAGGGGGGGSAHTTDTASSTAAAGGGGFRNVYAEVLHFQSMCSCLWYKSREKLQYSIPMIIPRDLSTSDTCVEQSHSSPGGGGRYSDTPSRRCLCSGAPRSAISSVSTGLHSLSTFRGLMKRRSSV
Protocol: Functional analysis of the KCNK3 channel was performed to evaluate the functional effects of the rare genetic variants identified and to provide insight into the disease mechanism. pIRES-CD8-hKCNK3 was kindly provided by Florian Lesage (Institut de Pharmacologie Moléculaire et Cellulaire, Centre National de la Recherche Scientifique and Université de Nice Sophia Antipolis, Valbonne, France). hKCNK3 DNA was amplified and inserted into pcDNA 3.1 (+) vector (Invitrogen). Site-directed mutagenesis was performed using the QuikChange kit (Stratagene) and all constructs were sequenced before use. COS-7 cells (American Type Culture Collection) were grown under conventional conditions (5% CO2, DMEM (Gibco) +GlutaMax medium (Gibco) and 10% fetal bovine serum (Gibco)). […] The topology of the KCNK3 channel was based on the crystal structure of TWIK-1 channel^43 and alignment was performed using GeneDoc.^44 Membrane currents were measured with whole-cell patch-clamp procedures using Axopatch 200B amplifiers (Axon Instruments). […] Current measured at +60 mV was selected for comparison of constructs and drug actions. […] Analyzed data are shown as mean+/−S.E.M. Statistical significance was determined using one-way ANOVA. p<0.05 was considered statistically significant. […]

Sequence of TASK-1 (O14649 whole entry): as above

FC(F)(F)C(Cl)Br (stereo not drawn) [Halothane, 2-bromo-2-chloro-1,1,1-trifluoroethane]
effect on TASK-1 channel (TASK-1): activated

CCCCC[C@H](O)CC[C@@H]1[C@H]2Cc3cccc(OCC(=O)O)c3C[C@H]2C[C@H]1O [Treprostinil]
dose linearity of pharmacokinetics ([1]; continuous subcutaneous, dose range 1.25 to 125 ng/kg/min, two-compartment model): linear
excreted in feces ([1]; in vivo): 13%
excreted in the urine as identified metabolites ([1]; in vivo): 64%
excreted in the urine as unchanged drug ([1]; in vivo): 4%
half life ([1]; in vivo): 4 h
metabolism ([1]; in vivo): substantially metabolized by the liver

CCCCCc1ccc(/C=C/C(=O)Nc2cc(Cl)ccc2C(=O)O)cc1 [ONO RS-082]
WT hKCNK3 current after application of drug (WT hKCNK3 channel): robust increase

FC(F)OC(Cl)C(F)(F)F (stereo not drawn) [Isoflurane, 2-chloro-2-(difluoromethoxy)-1,1,1-trifluoro-ethane]
effect on TASK-1 channel (TASK-1): activated
